Reference: patent publication US20230094568A1, “METHOD FOR SUPPRESSING DIFFERENTIATION OF PLURIPOTENT STEM CELLS” (KANEKA CORPORATION, priority 2020, published 2023)

Test system: Human iPS cell WTC-11 strain
Assay: Quantitative real-time PCR of marker genes after suspension culture (Example 2)
Format: cell-based
Settings: WTC-11, day 10 of suspension culture, inhibitor(s) in medium
Method: After the EDTA solution was sucked up, StemFit® AK02N medium was added to the dish, cells were detached with a cell scraper, and then dispersed into single cells by pipetting. […] Into a 6-well plate for suspension culture (Sumitomo Bakelite Co., Ltd.), 4 mL of the cell suspension was seeded per well. On a rotary shaker (Optima Co., Ltd.), the plate into which the cells had been seeded was rotated along a circle having a rotation width (diameter) of 25 mm in the horizontal plane at a speed of 90 rpm, and suspension culture was performed under an environment at 37° C. and 5% CO2. Subculture was performed on day 5 of culture as the day on which the cells were seeded was defined as day 0 of culture, and suspension culture was performed until day 10 of culture. Medium exchange was performed on day 2, 4, 7, and 9 of culture. […] On day 5 of culture, a cell aggregate and culture supernatant were collected from each well into a centrifuge tube, left to stand for about 5 minutes to precipitate the cell aggregate, and the culture supernatant was removed. […]
Quantitative real-time PCR analysis was performed with a procedure shown in the following. […] Quantitative real-time PCR analysis was carried out by using a TaqMan® QuantStudio3 real-time PCR system (Thermo Fisher Scientific).

Compound | ACTB-normalized relative gene expression level (2^−ΔCt) OCT4
O=C(Nc1cccc2cccnc12)c1ccc(N2C(=O)[C@@H]3[C@H](C2=O)[C@@H]2C=C[C@H]3C2)cc1 [Comparative Example 2, 4-(1,3,3a,4,7,7a-hexahydro-1,3-dioxo-4,7-methano-2H-isoindol-2-yl)-N-8-quinolinyl-benzamide] | 2.05
COc1ccc2c(c1)c(C1=C(c3c[nH]c4ccccc34)C(=O)NC1=O)cn2CCCN(C)C [Comparative Example 3, 3-[1-[3-(dimethylamino)propyl]-5-methoxy-1H-indol-3-yl]-4-(1H-indol-3-yl)-1H-pyrrole-2,5-dione] | 3.30 × 10^−3
